Data set [1] has as its system CLL. Conditions: average; read-out: average EC50, apoptosis in CLL; cited from earlier work.
In a further data set the test system is H146. In words: In vitro anti-proliferation assay (ATPlite) in BCL-XL-dependent small cell lung cancer cell line H146. Type of data set: cell-based. Conditions: Homo sapiens, NCI-H146; about 72 hours, 5% FBS. How it is done:
Cell antiproliferation is assayed by PerkinElmer ATPlite™ Luminescence Assay System. Briefly, the various test cancer cell lines are plated at a density of about 1×10^4 cells per well in Costar 96-well plates, and are incubated with different concentrations of compounds for about 72 hours in medium supplemented with 5% FBS. One lyophilized substrate solution vial is then reconstituted by adding 5 mL of substrate buffer solution, and is agitated gently until the solution is homogeneous. About 50 μL of mammalian cell lysis solution is added to 100 μL of cell suspension per well of a microplate, and the plate is shaken for about five minutes in an orbital shaker at ˜700 rpm. This procedure is used to lyse the cells and to stabilize the ATP. Next, 50 μL substrate solution is added to the wells and microplate is shaken for five minutes in an orbital shaker at ˜700 rpm. Finally, the luminescence is measured by a PerkinElmer TopCount® Microplate Scintillation Counter. Such assays, carried out with a range of doses of test compounds, allow the determination of the cellular anti-antiproliferative IC50 of the compounds of the present invention.
On the technique in general: ATP-based viability assays read luminescence as a measure of living cells.

In data set [2] the test system is CLL. Conditions: Human Phase I and II; cited from earlier work.
The target in another data set is Mcl-1 (Homo sapiens (Human), UniProt Q07820). Conditions: cited from earlier work.
For another data set, the system named is RS4;11 cells. The settings on record: cited from earlier work.
The subject of another data set is RS4;11 xenografts. Conditions: single dose of 100 mg/kg; cited from earlier work.

Chain of Mcl-1 (Q07820 whole entry): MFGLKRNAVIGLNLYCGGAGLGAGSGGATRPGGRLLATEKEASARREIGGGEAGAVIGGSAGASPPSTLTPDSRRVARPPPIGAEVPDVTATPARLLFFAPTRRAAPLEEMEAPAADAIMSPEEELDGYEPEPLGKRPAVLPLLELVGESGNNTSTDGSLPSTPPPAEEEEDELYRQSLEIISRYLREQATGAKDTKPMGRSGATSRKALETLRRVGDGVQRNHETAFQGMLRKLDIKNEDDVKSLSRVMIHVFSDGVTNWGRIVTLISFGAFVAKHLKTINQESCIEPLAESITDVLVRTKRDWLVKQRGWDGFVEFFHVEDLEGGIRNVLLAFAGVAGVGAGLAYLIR

Take `CC1(C)CCC(CN2CCN(c3ccc(C(=O)NS(=O)(=O)c4ccc(NCC5CCOCC5)c([N+](=O)[O-])c4)c(Oc4cnc5[nH]ccc5c4)c3)CC2)=C(c2ccc(Cl)cc2)C1` [ABT-199]: the EC50 with CLL [1] is 3 nM. The IC50 with H146 was over 2000 nM. In the data set on CLL [2], the “clinical efficacy for CLL” value is on record as “highly efficacious” and the clinical toxicity entry is listed as “lethal tumour lysis syndrome”. Also, the “activity to Mcl-1” value on Mcl-1 is “no activity”. The EC50 in the data set on RS4;11 cells was 8 nM. Further, in the data set with RS4;11 xenografts, the “maximal tumor growth inhibition” value is 95% and the tumor growth delay is given as 152%.

The EC50 is the concentration at which the effect is half-maximal. What is called IC50 is the concentration that inhibits the measured activity by half. Low values mean inhibition by little substance, high ones a need for much substance.
